Key:
[1] = test system: neurons in rat cerebrocortical cultures (SDF-1-induced apoptosis); test: SDF-1-induced neuronal apoptosis in rat cerebrocortical cultures; format: cell-based, Sprague-Dawley rats; conditions: p38 MAPK inhibition by SB 203580, FIG. 4(B)
Description: The model used in the assays described below, i.e., rat cerebrocortical cultures, was prepared from embryos of Sprague-Dawley rats at day 15 to 17 of gestation. See Lei et al., Neuron 8:1087-1099 (1992) and Lipton et al., Nature 364:626-632 (1993). Cultures were used for experiments after 17 to 24 days in culture. These cultures contain neurons, astrocytes, and macrophages/microglia, as determined with specific immunolabeling. Prior to some experiments, macrophages/microglia or neurons were depleted from the cultures by exposure to 7.5 mM L-leucine methyl ester or 2 mM N-methyl-D-aspartate (NMDA), respectively. See Lipton, NeuroReport 3:913-915 (1992). Absence of macrophages/microglia or neurons in these cultures was confirmed immunocytochemically, using antibodies to ED-1 and microtubule-associated protein-2 (MAP-2), respectively. In some experiments, the Griess reaction was used to measure nitrite levels in the culture medium as an index of nitric oxide (NO) release. See Chao et al., Glia 16:276-284 (1996). […]
Neuronal apoptosis in the above-described assays was assessed using a variety of techniques, e.g., staining of permeabilized cells with propidium iodide to determine apoptotic morphology, and a neuron-specific antibody (against NeuN or MAP-2) to identify cell type. […]

cultured RGCs = test: NMDA-induced apoptosis in cultured RGCs; format: cell-based, Long-Evans rats; conditions: 1 μM; 300 μM NMDA/5 μM glycine for 18 hr
Description: Retinal cell cultures. Retinal cells were prepared from 6-10 day old Long-Evans rats as described in Leifer et al., Science 224:303-306 (1984). Briefly, following dissociation in papain, retinal cells were plated on poly-L-lysine-coated glass coverslips in Eagle's minimum essential medium. RGCs were identified by immunocytochemical staining using an anti-Thy-1 antibody (2G12), which is specific among rat retinal cells for the ganglion cells.
Assessment of NMDA-induced apoptosis in cultured RGCs. To induce predominantly apoptosis (See Bonfoco et al., Proc. Natl. Acad. Sci. USA 92:7162-7166 (1995); Dreyer et al., Neuroreport 6:942-944 (1995)), retinal cell cultures were exposed to 300 μM NMDA/5 μM glycine for 18 hr in high calcium (3 mM) medium. For specific labeling of RGCs, the cultures were incubated with anti-Thy-1 antibody for 1 hr. Following 3 washes with PBS, cells were incubated in goat-anti-mouse-IgG-FITC for 1 hr. For assessment of apoptosis, retinal cells were fixed, permeabilized and stained with 20 μg/ml propidium iodide for 5 min, as described in Ankarcrona et al., Neuron 15:961-973 (1995). Briefly, coverslips containing the cells were washed once with PBS and permeabilized with 85% methanol for 10 min. […] Apoptotic nuclei were scored in cells that were also stained by anti-Thy-1, and expressed as a fraction of total RGCs.

Question: What does the source list for C[S+]([O-])c1ccc(-c2nc(-c3ccc(F)cc3)c(-c3ccncc3)[nH]2)cc1 (centres unmarked) [SB 203580, 4-(4-fluorophenyl)-2-(4-methylsulfinylphenyl)-5-(4-pyridyl)-1H-imidazole]?
Answer: effect on SDF-1 neurotoxicity (SDF-1β-induced neuronal apoptosis) [1]: ameliorated; survival of RGCs in the face of NMDA exposure (cultured RGCs): significantly increased

— patent US20030078274A1, “Method of reducing neuronal injury or apoptosis” (priority 1999, published 2003)
